US20150105252A1, “SUBSTITUTED PYRAZOLES AS HERBICIDES” (E I DU PONT DE NEMOURS AND COMPANY, priority 2013, published 2015)

What was measured:
pigweed = assay: Test A postemergence; assay type: in vivo, Amaranthus retroflexus
Outline: (§1)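 Growth medium: loam soil blended with sand. Preemergence treatment used a directed soil spray right after planting; postemergence treatment targeted seedlings at one to two leaves (2–10 cm height). Response was judged by eye relative to untreated plants about 10 days later on a 0–100 control scale.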

waterhemp = assay: Test C preemergence; assay type: in vivo, Amaranthus rudis; conditions: for Waterhemp plant response rating / Plant response rating, Waterhemp: preemergence; for Plant response rating, Waterhemp: scale 0 to 100, 0 = no effect, 100 = complete control
Source text: (§2) Seeds of plant species selected from blackgrass (Alopecurus myosuroides), ryegrass, Italian (Italian ryegrass, Lolium multiflorum), wheat (winter wheat, Triticum aestivum), galium (catchweed bedstraw, Galium aparine), corn (Zea mays), crabgrass, large (large crabgrass, Digitaria sanguinalis), foxtail, giant (giant foxtail, Setaria faberii), johnsongrass (Sorghum halepense), lambsquarters (Chenopodium album), morningglory (Ipomoea coccinea), nutsedge, yellow (yellow nutsedge, Cyperus esculentus), pigweed (redroot pigweed, Amaranthus retroflexus), ragweed (common ragweed, Ambrosia elation), soybean (Glycine max), barnyardgrass (Echinochloa crus-galli), oilseed rape (Brassica napus), waterhemp (common waterhemp, Amaranthus rudis), oat, wild (wild oat, Avena fatua), kochia (Kochia scoparia), Surinam grass (Brachiaria decumbens), foxtail, green (green foxtail, Setaria viridis), goosegrass (Eleusine indica), bromegrass, downy (downy bromegrass, Bromus tectorum), nightshade (eastern black nightshade, Solanum ptycanthum), cocklebur (common cocklebur, Xanthium strumarium), cupgrass, woolly (woolly cupgrass, Eriochloa villosa), bermudagrass (Cynodon dactylon), sunflower, (common oilseed sunflower, Helianthus annuus), Russian thistle (Salsola kali), and velvetleaf (Abutilon theophrasti) were planted into a blend of loam soil and sand and treated preemergence with test chemicals formulated in a non-phytotoxic solvent mixture which included a surfactant.
(§3) At the same time, plants selected from these crop and weed species and also chickweed (common chickweed, Stellaria media), canarygrass (littleseed canarygrass, Phalaris minor), and deadnettle (henbit deadnettle, Lamium amplexicaule), were planted in pots containing Redi-Earth® planting medium (Scotts Company, 14111 Scottslawn Road, Marysville, Ohio 43041) comprising spaghnum peat moss, vermiculite, wetting agent and starter nutrients and treated with postemergence applications of test chemicals formulated in the same manner. Plants ranged in height from 2 to 18 cm (1- to 4-leaf stage) for postemergence treatments. Treated plants and controls were maintained in a greenhouse for 13 to 15 days, after which time all species were compared to controls and visually evaluated. Plant response ratings, summarized in Table C, are based on a scale of 0 to 100 where 0 is no effect and 100 is complete control. A dash (-) response means no test result.

barnyardgrass = assay: Test B flood; assay type: in vivo, Echinochloa crus-galli; conditions: 250 g ai/ha, visual rating on 0 to 100 scale (0 no effect, 100 complete control), 13 to 15 days
Outline: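 Flooded-pot test: compound dosed into 3 cm of standing water above soil when plants had two leaves. Visual control ratings (0–100) versus untreated plants after 13–15 d.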

foxtail, giant = assay: Test C preemergence; assay type: in vivo, Setaria faberii; conditions: for Foxtail, Giant plant response rating / Plant response rating, Foxtail, Giant: preemergence; for Plant response rating, Foxtail, Giant: scale 0 to 100, 0 = no effect, 100 = complete control
Source text: as §2, §3

crabgrass, large = assay: Test C preemergence; assay type: in vivo, Digitaria sanguinalis; conditions: for Crabgrass, Large plant response rating / Plant response rating, Crabgrass, Large: preemergence; for Plant response rating, Crabgrass, Large: scale 0 to 100, 0 = no effect, 100 = complete control
Source text: as §2, §3

morningglory [1] = assay: Test A preemergence; assay type: in vivo, Ipomoea spp.; conditions: preemergence
Outline: as §1

morningglory [2] = assay: Test A postemergence; assay type: in vivo, Ipomoea spp.
Outline: as §1

[3] = Postemergence, 500 g ai/ha, 0 to 100 scale (0 no effect, 100 complete control)
[4] = postemergence, 125 g ai/ha, about 10 days, visual rating on 0 to 100 scale (0 no effect, 100 complete control)
[5] = 31 g ai/ha, visual rating, scale 0 to 100 (0 no effect, 100 complete control), 13 to 15 days
[6] = 62 g ai/ha, scale 0 to 100 (0 no effect, 100 complete control), 13 to 15 days
[7] = 125 g ai/ha, scale 0 to 100, 0 is no effect, 100 is complete control
[8] = 500 g ai/ha, visual injury after approx. 10 days, 0 to 100 scale (0 no effect, 100 complete control)
[9] = 250 g ai/ha, scale 0 to 100, 0 is no effect, 100 is complete control

| Structure (SMILES) | Pigweed plant response rating (pigweed; [3]) | Pigweed plant response rating (pigweed; [4]) | Waterhemp plant response rating (waterhemp; [5]) | Waterhemp plant response rating (waterhemp; [6]) | Plant response rating, Barnyardgrass (barnyardgrass) | Foxtail, Giant plant response rating (foxtail, giant; [5]) | Foxtail, Giant plant response rating (foxtail, giant; [6]) | Crabgrass, Large plant response rating (crabgrass, large; [5]) | Crabgrass, Large plant response rating (crabgrass, large; [6]) | Morningglory plant response rating (morningglory [1]; [8]) | Plant response rating, Waterhemp (waterhemp; 125 g ai/ha, 13 to 15 days) | Waterhemp plant response rating (waterhemp; [9]) | Plant response rating, Foxtail, Giant (foxtail, giant; 125 g ai/ha, 13 to 15 days) | Foxtail, Giant plant response rating (foxtail, giant; [9]) | Plant response rating, Crabgrass, Large (crabgrass, large; 125 g ai/ha, 13 to 15 days) | Crabgrass, Large plant response rating (crabgrass, large; [9]) | Morningglory plant response rating (morningglory [2]; [3]) | Morningglory plant response rating (morningglory [2]; [4]) | other results |
| --- | --- | --- | --- | --- | --- | --- | --- | --- | --- | --- | --- | --- | --- | --- | --- | --- | --- | --- | --- |
| CCONC(=O)c1cc(CC)n(Cc2cc(C(F)(F)F)no2)n1 [Compound 125] | 100 | 70 | 65 | 65 | 20 | 20 | 35 | 5 | 25 |  |  |  |  |  |  |  |  |  | Plant response rating (scale of 0 to 100), Waterhemp (waterhemp; Preemergence, 250 g ai/ha): 90; Waterhemp plant response rating (waterhemp; [7]): 85; Plant response rating (scale of 0 to 100), Foxtail, Giant (foxtail, giant; Preemergence, 250 g ai/ha): 90; Foxtail, Giant plant response rating (foxtail, giant; [7]): 90; Plant response rating (scale of 0 to 100), Crabgrass, Large (crabgrass, large; Preemergence, 250 g ai/ha): 95; Crabgrass, Large plant response rating (crabgrass, large; [7]): 75 |
| O=C(NCC(F)(F)F)c1cc(CCCl)n(Cc2ccnc(C(F)(F)F)c2)n1 [Compound 143] | 100 | 100 | 98 | 98 | 45 | 100 | 100 | 100 | 100 | 100 | 100 | 100 | 100 | 100 | 100 | 100 | 100 | 40 | Morningglory plant response rating (morningglory [1]; 125 g ai/ha, visual injury, 0 to 100 scale, approx. 10 days): 100 |
| CCCNC(=O)c1cc(CCCl)n(Cc2ccnc(C(F)(F)F)c2)n1 [Compound 145] | 100 | 100 | 98 | 100 | 45 | 100 |  | 100 |  | 100 | 100 | 100 | 100 | 100 | 100 | 100 | 100 | 80 | Morningglory plant response rating (0 to 100 scale) (morningglory [1]; 125 g ai/ha, visual injury approx. 10 days after treatment): 100 |
